Legend:
[1] = test system: B. subtilis; format: cell-based, Bacillus subtilis (ATCC 9372); conditions: ppm of silver, organism not given
Description: (§1) Antibacterial properties of C—S CuSiNP and AgSiNG materials were evaluated against a gram positive Bacillus subtilis (B. subtilis, ATCC 9372) and a gram negative Escherichia coli (E. coli, ATCC 35218) organism. For all antibacterial assays, bacterial concentration of 10^5 cells/mL was considered. Copper sulfate with same metallic copper concentration was used as positive controls and silica nanoparticle (without Cu loading) was used as negative control.
(§2) Two sets of different concentrations of C—S CuSiNP were made in LB broth (0.49, 1.2, 2.4, 4.9, 7.2 and 9.8 ppm copper concentration) to a final volume of 10 mL. 250 μL (10^5 cells/mL) of E. coli and B. subtilis were added to set 1 and 2 respectively. Silica nanoparticle was used as negative control and copper sulfate with equivalent amount of copper was used as positive control. […]
(§3) The growth inhibitory effects of C—S CuSiNP and AgSiNG against E. coli and B. subtilis were studied in liquid media (FIG. 2.3 and FIG. 2.4). Bacterial growth with different concentrations of C—S CuSiNP and AgSiNG (0.49 to 9.8 μg mL^−1) was monitored after 24 hours of incubation at 37° C. by measuring the optical density at 600 nm using Teysche800 spectrophotometer. Since the turbidity of silica based material can interfere with the optical density reading, the background measurement was subtracted to calculate the final reading.

[2] = test system: E. coli; format: cell-based, Escherichia coli (ATCC 35218); conditions: ppm of silver, organism not given
Description: as §1, §2, §3

O=[N+]([O-])[O-].[Ag+] [silver nitrate]
silver concentration at which growth inhibition can be seen [1]: 2.4 ppm | silver concentration at which growth inhibition can be seen [2]: 2.4 ppm

Reference: US20130108702A1, “COPPER/SILICA NANOPARTICLES, METHODS OF MAKING, AND METHODS OF USE” (priority 2011, published 2013)
